In patent publication US8586598B2, “CDK inhibitor salts” (Nerviano Medical Sciences S.R.L., priority 2009, dated 2013):
≈ marks a conversion by molar mass, not a printed value. Like-named read-outs stand apart in the source and are kept apart here.

Assays:
[1] = Solubility (no method given); format: physicochemical
[2] = Solubility of compound 125 salts and free base (96-well plate, shaken at RT 30 minutes, filtered, HPLC); format: physicochemical; conditions: thermodynamic from solid

solubility ([1]; 5% dextrose solution, saline or isotonic, read-out: solubility in 5% dextrose solution): < 100 µg/mL
solubility ([1]; HCl in situ salt formulation, formulated as HCl in situ salt, read-out: solubility when formulated as HCl in situ salt): ≥ 10000 µg/mL
solubility ([1]; aqueous 10% Polysorbate 80, aqueous with cosolvent or surfactant or cyclodextrin): ~800 µg/mL (≈ 1740 µM)
solubility ([1]; aqueous 50% Polyethylene Glycol 400, aqueous with cosolvent or surfactant or cyclodextrin, read-out: solubility in aqueous 50% Polyethylene Glycol 400): ~8000 µg/mL (≈ 17400 µM)
solubility ([1]; water, read-out: aqueous solubility): < 100 µg/mL
solubility at 30 min ([2]; 10% polysorbate 80 in 5% glucose solution, aqueous with cosolvent or surfactant or cyclodextrin): 800 µg/mL
solubility at 30 min ([2]; 50% polyethylene glycol 400 in 5% glucose solution, aqueous with cosolvent or surfactant or cyclodextrin, read-out: solubility in 50% polyethylene glycol 400 in 5% glucose solution): 7200 µg/mL
solubility at 30 min ([2]; saline or isotonic, 5% glucose solution, RT, 30 minutes, read-out: solubility in 5% glucose solution): < 100 µg/mL
solubility at 30 min ([2]; formulated as hydrochloride in situ salt, read-out: solubility when formulated as hydrochloride in situ salt): 10000 µg/mL
Structure (SMILES): CNC(=O)c1nn(C)c2c1C(C)(C)Cc1cnc(Nc3ccc(N4CCN(C)CC4)cc3)nc1-2 [compound 125, 8-[4-(4-methyl-piperazin-1-yl)-phenylamino]-1,4,4-trimethyl-4,5-dihydro-1H-pyrazolo[4,3-h]quinazoline-3-carboxylic acid methylamide]
